“Also recorded” adds a separate entry of the source.
Tests used:
influenza A/WSN/33 virus = type: cell-based
[1] = target: NP (rY40F WSN virus infected A549 cells) (Influenza A virus, UniProt P15682, G34D/P283S/Y40F); type: cell-based
[2] = test system: A/Brisbane/59/2007-R (oseltamivir resistant); test: microbe, parasite or virus in culture; type: cell-based; conditions: Influenza A virus, H1N1, A549, 24 h
rWSN-NP/Y40F virus = type: cell-based, influenza A virus

Row | SMILES | maximum virus inhibition while maintaining enough virus production for passages (influenza A/WSN/33 virus) [logs] | effect on NP oligomerization [1] | IC50 [2] [µM] | resistance phenotype of Y40F mutant virus (rWSN-NP/Y40F virus)
1 | CC(C)(C)c1ccc(C(=O)Nc2ccc(NC(=O)c3ccc(C(C)(C)C)cc3)cc2)cc1 [S119, N,N′-(1,4-Phenylene)bis(4-(tert-butyl)benzamide)] | 3 | unaffected | > 50 | resistant phenotype
2 | CC(C)(C)c1ccc(C(=O)Nc2ccc(Nc3ccccc3)cc2)cc1 [S119-8, 4-(tert-butyl)-N-(4-(phenylamino)-phenyl)benzamide] | – | – | 3.85 | maintained resistance; also recorded: retains the same Y40F resistant phenotype
3 | Cc1onc(-c2ccccc2)c1C(=O)N1CCN(c2ccc([N+](=O)[O-])cc2Cl)CC1 [nucleozin, reference compound] | – | altered | – | minor resistance phenotype

Source: PMC6145453 (ACS infectious diseases, 2018)
